Assay results taken from US9868722B2, “Monocyclic pyrimidine/pyridine compounds as inhibitors of P97 complex” (Cleave Biosciences, Inc., priority 2013, dated 2018).

What was measured:
A549 cells = test: Cultured cancer cell viability assay (cell titer glo, A549 CTG); type: cell-based; conditions: Homo sapiens; A549 cells, 72 hr incubation, cell titer glo; read-out: A549 CTG IC50
Source text: Anti-tumor effects are monitored in cultured cancer cells after several days of compound treatment. The cell titer glo assay (Promega) measures the amount of ATP present as a proxy for cellular viability. Cellular counting is done using high-content microscopy followed by image analysis. A hanging drop 3D-culture system (3D Biomatrix) is used followed by cell titer glo to measure growth in a tumor-like environment.
The cellular assay provides information about the anti-neoplastic activity of the compounds of the invention. The compounds are tested against cultured cancer cells to determine whether or not the compounds of the invention are capable of intersecting with cancer cells to minimize or eliminate such cells. The assay involves establishing colonies of such cells and then treating them with the test compound under specified conditions and analysis regime to determine results.
(§1) Plate 25 μL of A549 cells in every well of 384-well plate using multidrop.
One (1) white plate for viability at 500 cells/well.
Serial dilute compounds with a 10 point 2-fold serial dilution in DMSO to make 250× stock compound solution
Dilute compounds 1:125 in cell culture media to make a 2× solution Add 25 μl of dilution compounds to cell plates in well duplicates
Put cells back in incubator (6 hr incubation for black plates, 72 hr incubation for white plates).
Thaw an aliquot of frozen cell titer glo (Promega G7572) at room temperature.
Add 45 mL of NaCl/PBS solution to 5 ml of cell titer glo (10×).
Remove white plates from incubator, leave at room temp for 30 minutes.
Add 25 μl of diluted cell titer glo to each well.
Shake plate for >1 minute.
Incubate plate for >5 minutes to stabilize luminescence. • Luminescence is stable for up to 3 hours.
Read luminescence on plate reader
The results are reported on the following Table I for Examples A-EE and the E1-E4 compounds as 50 percent Inhibitory concentration at candidate doses of less than 1 μM, less than 3 μM and less than 10 μM for both of the K48 antibody and the p53 (CTG) antibody assays

p97 = p97 (Homo sapiens, UniProt P55072); test: P97 ATPase biochemical assay (ADP Glo); conditions: 20 nM p97, 20 uM ATP, 37 degC 15 min
Sequence of p97 (P55072 whole entry): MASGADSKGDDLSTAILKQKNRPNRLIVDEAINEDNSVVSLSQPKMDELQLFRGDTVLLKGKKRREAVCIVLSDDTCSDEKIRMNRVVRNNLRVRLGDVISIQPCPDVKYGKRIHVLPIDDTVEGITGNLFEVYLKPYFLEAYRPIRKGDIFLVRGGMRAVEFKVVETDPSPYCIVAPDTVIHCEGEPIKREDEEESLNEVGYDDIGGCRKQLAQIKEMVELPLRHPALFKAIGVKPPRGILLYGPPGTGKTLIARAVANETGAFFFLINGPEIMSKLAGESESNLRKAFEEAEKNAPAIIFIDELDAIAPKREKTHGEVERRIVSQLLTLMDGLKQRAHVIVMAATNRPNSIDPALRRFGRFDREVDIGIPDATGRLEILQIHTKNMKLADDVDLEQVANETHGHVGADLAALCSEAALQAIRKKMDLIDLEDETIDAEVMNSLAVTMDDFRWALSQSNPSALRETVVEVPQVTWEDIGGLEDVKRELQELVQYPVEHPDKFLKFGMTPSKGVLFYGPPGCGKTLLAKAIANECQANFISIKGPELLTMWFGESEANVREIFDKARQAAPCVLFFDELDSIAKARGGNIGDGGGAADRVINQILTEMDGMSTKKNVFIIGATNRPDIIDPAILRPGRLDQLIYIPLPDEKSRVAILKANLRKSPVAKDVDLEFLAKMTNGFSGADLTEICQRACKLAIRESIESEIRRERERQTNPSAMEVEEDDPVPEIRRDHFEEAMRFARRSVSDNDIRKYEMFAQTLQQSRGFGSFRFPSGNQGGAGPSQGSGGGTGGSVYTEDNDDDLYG
Method: The ATPase assay is performed according the following protocol: Purified enzyme (20 nM p97), substrate (20 μM ATP) and a dose titration of compounds are mixed in buffer (50 mM TRIS pH 7.5, 20 mM MgCl2, 0.02% TX-100, 1 mM DTT, 0.2% (v/v) glycerol) and incubated at 37° C. for 15 minutes. The reaction is terminated and the level of product generated is measured using the ADP Glo Assay Kit (Promega, Madison Wis.). Plotting product generated versus compound concentration and using a four-parameter fit model generates an IC50 value for each compounds.
The p97 assay is an initial screening assay used to determine inhibitory activity of the monocyclic pyrimidine compounds of the invention against the p97 complex. As discussed above, inhibition of activity of the p97 proteosome complex can enable apoptosis and cause elimination of neoplastic cells (cancer cells). The method follows that of Christianson in Nat. Cell Biol., (2011) 14:93.
Assay Buffer is a mixture of 50 mM TRIS pH 7.5, 20 mM MgCl2, 0.02% TX-100, 1 mM DTT and 0.2% (v/v) Glycerol. The well plate is Platetype: Corning 3674, 384w plate. The identification kit is an ADP glo kit (Promega): stop buffer, detection reagent.
Serial dilute compound in DMSO in a 1:3.33-fold 10 point serial dilution.
0.5 μL compound serial diluted in DMSO (Final Conc. 10%)
2 μL ATP (Final Conc.=20 uM, diluted in assay buffer)
2.5 μL p97 (Final Conc.=20 nM, diluted in assay buffer)
Incubate at 37 degC for 15 min.
Add 5 μL of stop buffer, incubate at RT for 40 min.
Add 10 μL of detection reagent, incubate at RT for 30 min.
Read luminescence on Envision plate reader. • Upon obtaining the data from the luminescence reading, the data may be analyzed as follows:
Normalize luminescence data using no enzyme (full inhibition) and no compound (no inhibition) controls. Plot normalized luminescence data against log-transformed concentration values and fit to a sigmoidal curve to determine IC50 values (done in Collaborative Drug Discovery software).
The results are reported on the following Table for Examples A-EE and the E1-E4 compounds as 50 percent Inhibitory concentration at candidate doses of less than 30 nM, less than 100 nM, less than 300 nM and less than 1000 nM for the p97 inhibition assay.

[1] = test system: K48 poly-Ubiquitin accumulation in A549 cells; test: A549 K48 poly-ubiquitin accumulation immunofluorescence assay; type: cell-based; conditions: Homo sapiens; A549 cells, 6 hr incubation, K48-Ub antibody; read-out: A549 K48 IC50
Method: Image-analysis is used to generate quantitative data from these assays that can be fit to a four-parameter sigmoid curve to derive IC50 values. Substrates of the ubiquitin-proteasome system, such as p53, are monitored after tumor cell lines are incubated with compounds for several hours. Accumulation of these proteins indicates an inhibition of proteasome-mediated degradation. Accumulation of lysine-48 chain linkage of poly-ubiquitin is also monitored by immunofluorescence as an indicator of ubiquitin-proteasome system inhibition. Both LC3 and SQSTM1 are mediators of autophagy. The localization and amounts of these proteins are monitored by immunofluorescence and report on the activity and inhibition of autophagy in response to p97 inhibition.
as §1
Two (2) black plates for IF at 2500 cells/well
Serial dilute compounds with a 10 point 2-fold serial dilution in DMSO to make 250× stock compound solution Dilute compounds 1:125 in cell culture media to make a 2× solution Add 25 μl of dilution compounds to cell plates in well duplicates Put cells back in incubator (6 hr incubation for black plates, 72 hr incubation for white plates).
Incubate cells in black plates with compound at 37 degC for 6 hrs. add 15 μL of 16% Paraformaldehyde (PFA) directly into media of each well, incubate at room temp for 5 min, flick plate and wash in 50 μL of PBS block in 50 μL of Blocking Buffer for 30 minutes (can go up to several hours) Blocking buffer: 1×PBS, 1% BSA, 0.3% Triton-X100, Hoechst (1:10,000) incubate in 25 μL of primary antibody in blocking buffer at 4 degC over night […]
Secondary Antibodies: • AlexaFluor488 Goat anti-Rabbit 1:2,000 (Life Tech A11008) • AlexaFluor555 Goat anti-Mouse 1:2,000 (Life Tech A21422) incubate in 25 μl of secondary antibody (1:2,000) in blocking buffer for 1-2 hrs at room temp (alexafluor488-anti-Rabbit/alexafluor555-anti-Mouse) Image plates in high content microscope with 405 nm, 488 nm and 555 nm filters Nuclear counts and cellular intensities of each markers are measured using Hoechst as a nuclear marker with an automated image analysis protocol using Matlab software (Math Works) The results are reported on the following Table I for Examples A-EE and the E1-E4 compounds as 50 percent Inhibitory concentration at candidate doses of less than 1 μM, less than 3 μM and less than 10 μM for both of the K48 antibody and the p53 (CTG) antibody assays

Caco-2 cell monolayers = conditions: pH 7.4, range over 12 inter-day experiments

SMILES | IC50 (A549 cells) [µM] | IC50 (p97) [µM] | IC50 [1] [µM] | Peff (×E-6 cm/sec) in pH 7.4 Caco-2, A B, Range (Caco-2 cell monolayers; A to B) | Peff (×E-6 cm/sec) in pH 7.4 Caco-2, B A, Range (Caco-2 cell monolayers; B to A)
Cc1cc2c(C(N)=O)cccc2n1-c1ncc(C(C)N)c(NCc2ccccc2)n1 (centres unmarked) [Example 35, 1-[5-(1-aminoethyl)-4-(benzylamino)pyrimidin-2-yl]-2-methyl-1H-indole-4-carboxamide] | < 10 | < 0.1 | < 10 | – | –
CNCc1nc(-n2c(C)cc3c(C(N)=O)cccc32)nc(NCc2ccccc2)c1C [Example 36, 1-[4-(benzylamino)-5-methyl-6-[(methylamino)methyl]pyrimidin-2-yl]-2-methyl-1H-indole-4-carboxamide] | < 10 | < 0.1 | < 10 | – | –
CC(C)NCC(O)COc1cccc2ccccc12 (centres unmarked) [Propranolol] | – | – | – | 18.50-36.80 ×E-6 cm/sec | 16.30-31.40 ×E-6 cm/sec

Continued, values first:

IC50 (A549 cells) [µM] | IC50 (p97) [µM] | IC50 [1] [µM] | Peff (×E-6 cm/sec) in pH 7.4 Caco-2, A B, Range (Caco-2 cell monolayers; A to B) | Peff (×E-6 cm/sec) in pH 7.4 Caco-2, B A, Range (Caco-2 cell monolayers; B to A) | SMILES
< 3 | < 0.03 | < 3 | – | – | Cc1cc2c(C(N)=O)cccc2n1-c1ncc(C(C)O)c(NCc2ccccc2)n1 (centres unmarked) [Example 34, 1-[4-(benzylamino)-5-(1-hydroxyethyl)pyrimidin-2-yl]-2-methyl-1H-indole-4-carboxamide]
< 10 | < 1 | < 3 | – | – | COc1cnc(-n2c(C)cc3c(CN)cccc32)nc1NCc1ccccc1 [Example 37, 2-[4-(aminomethyl)-2-methyl-1H-indol-1-yl]-N-benzyl-5-methoxypyrimidin-4-amine]
